Measurements as given in the supplement of paper PMC12463676, “Small-molecule dissolution of stress granules by redox modulation benefits ALS models” (Nature Chemical Biology, 2025).

Experiments:
lipoamide = compound: NC(=O)CCCCC1CCSS1 [lipoamide]; experiment: thermal stability z-score vs DMSO; higher = more thermally stabilized by treatment; details: HeLa, lipoamide concentration 100 µM
Procedure: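 Cellular thermal proteome profiling in HeLa cells. Cells were treated with 100 µM lipoamide for 1 h, with or without 1 mM arsenate for a further 1 h, then heated to ten temperatures (37-66.3 °C), and soluble protein was quantified by TMT mass spectrometry relative to 0.1% DMSO controls. The thermal stability score (sum of log2 fold changes minus the abundance score) was transformed to a z-score; mean of n = 3 experiments.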

potassium arsenate = compound: O=[As]([O-])(O)O.[K+] [potassium arsenate]; experiment: as above; details: HeLa; arsenate concentration 1 mM
Procedure: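 Cellular thermal proteome profiling in HeLa cells treated with 1 mM arsenate for 1 h (DMSO pretreatment), heated to ten temperatures (37-66.3 °C). Soluble protein was quantified by TMT mass spectrometry relative to DMSO controls; the thermal stability score was transformed to a z-score; mean of n = 3 experiments.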

[1] = arsenate co-treatment: 1 mM arsenate 1 h
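Further: each temperature applied for 3 min, abundance score taken as mean log2 fold change at the two lowest temperatures, z-score obtained by mean subtraction and division by SD.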

UniProt Q6XZF7, sequence (Q6XZF7 whole entry): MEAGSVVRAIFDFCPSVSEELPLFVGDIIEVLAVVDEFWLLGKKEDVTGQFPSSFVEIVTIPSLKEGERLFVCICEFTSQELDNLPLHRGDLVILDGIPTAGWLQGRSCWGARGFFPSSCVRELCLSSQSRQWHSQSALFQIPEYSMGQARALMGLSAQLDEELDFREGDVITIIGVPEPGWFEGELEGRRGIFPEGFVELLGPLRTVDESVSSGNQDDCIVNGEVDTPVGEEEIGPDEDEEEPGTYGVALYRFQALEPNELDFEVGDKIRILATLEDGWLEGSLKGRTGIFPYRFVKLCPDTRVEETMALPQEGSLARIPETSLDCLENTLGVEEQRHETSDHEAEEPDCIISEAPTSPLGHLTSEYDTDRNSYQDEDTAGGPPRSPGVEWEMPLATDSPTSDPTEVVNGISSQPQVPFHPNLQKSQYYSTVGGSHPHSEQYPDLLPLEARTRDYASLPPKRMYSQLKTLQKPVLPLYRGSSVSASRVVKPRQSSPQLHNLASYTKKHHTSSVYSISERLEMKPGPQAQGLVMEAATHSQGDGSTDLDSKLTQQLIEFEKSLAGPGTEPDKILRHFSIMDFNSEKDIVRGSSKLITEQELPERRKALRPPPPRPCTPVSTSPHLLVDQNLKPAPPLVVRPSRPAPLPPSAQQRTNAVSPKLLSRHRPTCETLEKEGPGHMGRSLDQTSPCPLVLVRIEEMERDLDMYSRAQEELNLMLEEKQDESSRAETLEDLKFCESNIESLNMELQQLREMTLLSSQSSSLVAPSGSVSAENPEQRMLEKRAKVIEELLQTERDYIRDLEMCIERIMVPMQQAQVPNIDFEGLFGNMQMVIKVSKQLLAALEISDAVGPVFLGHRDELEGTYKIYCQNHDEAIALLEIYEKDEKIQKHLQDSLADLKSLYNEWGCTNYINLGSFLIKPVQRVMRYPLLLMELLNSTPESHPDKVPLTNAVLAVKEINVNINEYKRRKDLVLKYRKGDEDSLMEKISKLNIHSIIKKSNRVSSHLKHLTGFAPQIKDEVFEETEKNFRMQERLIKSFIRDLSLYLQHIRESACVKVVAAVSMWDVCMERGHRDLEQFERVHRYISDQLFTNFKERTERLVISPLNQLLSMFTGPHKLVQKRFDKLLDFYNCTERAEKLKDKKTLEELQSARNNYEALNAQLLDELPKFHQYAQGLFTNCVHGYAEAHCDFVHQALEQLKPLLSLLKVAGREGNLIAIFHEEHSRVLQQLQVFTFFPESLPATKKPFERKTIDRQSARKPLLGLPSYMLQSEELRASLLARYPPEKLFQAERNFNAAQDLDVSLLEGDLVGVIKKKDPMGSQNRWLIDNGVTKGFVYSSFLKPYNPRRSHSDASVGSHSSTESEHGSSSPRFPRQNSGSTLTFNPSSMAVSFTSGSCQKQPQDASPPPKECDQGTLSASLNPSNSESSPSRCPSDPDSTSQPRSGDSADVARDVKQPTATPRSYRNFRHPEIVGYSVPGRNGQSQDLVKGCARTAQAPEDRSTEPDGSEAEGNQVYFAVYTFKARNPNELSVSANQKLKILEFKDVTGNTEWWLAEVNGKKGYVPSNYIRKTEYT
UniProt Q9NVG8, sequence (Q9NVG8 whole entry): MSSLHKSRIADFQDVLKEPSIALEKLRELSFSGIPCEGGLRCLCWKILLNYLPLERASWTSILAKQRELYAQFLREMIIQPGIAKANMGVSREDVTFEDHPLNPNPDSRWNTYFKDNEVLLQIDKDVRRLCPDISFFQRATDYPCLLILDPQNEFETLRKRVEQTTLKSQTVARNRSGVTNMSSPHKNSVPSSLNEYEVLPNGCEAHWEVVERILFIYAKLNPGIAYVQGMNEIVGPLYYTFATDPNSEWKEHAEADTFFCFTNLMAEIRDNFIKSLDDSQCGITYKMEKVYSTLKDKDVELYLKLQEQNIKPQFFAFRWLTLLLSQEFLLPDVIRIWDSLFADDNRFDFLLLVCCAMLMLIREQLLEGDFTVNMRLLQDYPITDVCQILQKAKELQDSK
UniProt Q13123, sequence (Q13123 whole entry): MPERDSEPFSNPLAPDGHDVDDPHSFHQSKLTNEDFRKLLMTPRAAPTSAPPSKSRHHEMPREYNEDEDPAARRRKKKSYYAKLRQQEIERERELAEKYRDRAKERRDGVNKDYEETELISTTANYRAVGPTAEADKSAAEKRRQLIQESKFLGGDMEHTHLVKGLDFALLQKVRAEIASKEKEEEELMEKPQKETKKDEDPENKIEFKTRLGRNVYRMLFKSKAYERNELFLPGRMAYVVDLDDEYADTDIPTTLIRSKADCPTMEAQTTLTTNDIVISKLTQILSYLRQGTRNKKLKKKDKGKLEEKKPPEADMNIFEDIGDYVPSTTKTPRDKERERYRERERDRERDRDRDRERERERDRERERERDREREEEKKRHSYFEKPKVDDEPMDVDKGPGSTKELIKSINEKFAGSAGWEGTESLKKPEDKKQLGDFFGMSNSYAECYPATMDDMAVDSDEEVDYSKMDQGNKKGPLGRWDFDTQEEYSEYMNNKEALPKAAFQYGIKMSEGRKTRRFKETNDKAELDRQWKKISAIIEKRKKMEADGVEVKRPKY
UniProt Q9NRG4, sequence (Q9NRG4 whole entry): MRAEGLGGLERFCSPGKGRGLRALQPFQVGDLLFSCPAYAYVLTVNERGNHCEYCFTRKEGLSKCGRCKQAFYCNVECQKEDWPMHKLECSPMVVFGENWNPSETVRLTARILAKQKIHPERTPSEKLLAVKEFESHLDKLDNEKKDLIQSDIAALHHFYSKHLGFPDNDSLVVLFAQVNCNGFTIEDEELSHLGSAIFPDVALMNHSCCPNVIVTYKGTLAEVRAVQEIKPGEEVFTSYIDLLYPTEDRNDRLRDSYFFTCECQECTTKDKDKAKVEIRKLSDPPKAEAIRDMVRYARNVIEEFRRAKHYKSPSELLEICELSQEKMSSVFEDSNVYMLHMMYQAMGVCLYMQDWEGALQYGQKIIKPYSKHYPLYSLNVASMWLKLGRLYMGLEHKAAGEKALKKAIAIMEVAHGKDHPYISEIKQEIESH
UniProt P12004, sequence (P12004 whole entry): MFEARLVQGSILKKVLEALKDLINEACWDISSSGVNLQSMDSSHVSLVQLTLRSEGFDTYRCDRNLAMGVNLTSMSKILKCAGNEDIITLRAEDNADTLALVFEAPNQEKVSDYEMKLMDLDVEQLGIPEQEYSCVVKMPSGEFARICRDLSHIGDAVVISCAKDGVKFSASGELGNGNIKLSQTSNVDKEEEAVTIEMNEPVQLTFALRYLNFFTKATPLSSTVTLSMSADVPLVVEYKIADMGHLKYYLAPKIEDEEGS
UniProt Q9UIC8, sequence (Q9UIC8 whole entry): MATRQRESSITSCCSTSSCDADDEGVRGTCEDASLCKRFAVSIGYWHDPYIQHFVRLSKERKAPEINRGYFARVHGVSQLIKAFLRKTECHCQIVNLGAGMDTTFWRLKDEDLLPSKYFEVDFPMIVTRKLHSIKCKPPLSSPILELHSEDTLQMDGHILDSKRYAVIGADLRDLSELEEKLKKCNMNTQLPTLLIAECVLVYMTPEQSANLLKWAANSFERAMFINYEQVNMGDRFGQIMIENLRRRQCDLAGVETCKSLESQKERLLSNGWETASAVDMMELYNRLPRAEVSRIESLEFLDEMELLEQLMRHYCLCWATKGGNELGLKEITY
UniProt P42702, sequence (P42702 whole entry): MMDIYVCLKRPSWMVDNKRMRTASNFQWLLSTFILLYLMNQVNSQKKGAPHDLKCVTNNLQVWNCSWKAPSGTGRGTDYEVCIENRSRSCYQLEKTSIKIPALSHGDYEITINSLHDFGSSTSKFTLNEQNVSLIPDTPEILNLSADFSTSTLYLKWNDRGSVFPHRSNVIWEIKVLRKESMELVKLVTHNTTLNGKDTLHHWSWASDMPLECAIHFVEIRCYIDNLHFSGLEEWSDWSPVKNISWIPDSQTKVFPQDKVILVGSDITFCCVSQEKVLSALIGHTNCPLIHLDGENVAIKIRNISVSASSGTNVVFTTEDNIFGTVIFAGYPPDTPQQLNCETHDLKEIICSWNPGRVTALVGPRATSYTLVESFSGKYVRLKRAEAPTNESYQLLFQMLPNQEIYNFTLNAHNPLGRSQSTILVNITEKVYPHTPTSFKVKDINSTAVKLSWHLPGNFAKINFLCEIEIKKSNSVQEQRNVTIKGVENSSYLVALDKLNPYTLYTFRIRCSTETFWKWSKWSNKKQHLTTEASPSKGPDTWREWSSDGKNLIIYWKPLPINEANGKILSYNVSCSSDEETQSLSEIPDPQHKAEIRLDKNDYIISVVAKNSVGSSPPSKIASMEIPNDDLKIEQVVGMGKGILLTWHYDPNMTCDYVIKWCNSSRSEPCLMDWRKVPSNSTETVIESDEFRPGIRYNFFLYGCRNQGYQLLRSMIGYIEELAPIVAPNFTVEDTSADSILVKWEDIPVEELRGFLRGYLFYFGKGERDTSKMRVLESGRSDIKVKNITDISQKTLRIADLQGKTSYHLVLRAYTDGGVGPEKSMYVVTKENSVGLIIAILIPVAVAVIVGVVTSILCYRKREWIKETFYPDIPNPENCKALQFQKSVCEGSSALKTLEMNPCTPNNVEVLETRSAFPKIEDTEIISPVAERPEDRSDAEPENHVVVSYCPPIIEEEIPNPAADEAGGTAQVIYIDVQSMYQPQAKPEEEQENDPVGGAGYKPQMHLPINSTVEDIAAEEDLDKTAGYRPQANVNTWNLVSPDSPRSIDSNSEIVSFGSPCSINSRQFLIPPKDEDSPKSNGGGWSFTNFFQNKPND
UniProt O76095, sequence (O76095 whole entry): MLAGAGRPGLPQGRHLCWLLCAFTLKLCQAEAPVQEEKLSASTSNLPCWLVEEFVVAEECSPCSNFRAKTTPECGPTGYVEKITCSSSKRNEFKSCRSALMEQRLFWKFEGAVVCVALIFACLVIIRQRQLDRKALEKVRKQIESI
UniProt Q9NVJ2, sequence (Q9NVJ2 whole entry): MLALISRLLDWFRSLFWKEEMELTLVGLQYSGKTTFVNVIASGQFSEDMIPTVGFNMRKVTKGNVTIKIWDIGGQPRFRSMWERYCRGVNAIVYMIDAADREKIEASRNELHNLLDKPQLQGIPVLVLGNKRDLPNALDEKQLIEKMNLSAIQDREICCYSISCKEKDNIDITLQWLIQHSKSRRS

Target	thermal stability z-score (lipoamide; [1])	thermal stability z-score (lipoamide; arsenate co-treatment: none)	thermal stability z-score (potassium arsenate)
LIFR (UniProt P42702)	-1.35	-0.675	-0.287
SPTLC2 (UniProt O15270)	-0.0734	-0.585	-0.25
JTB (UniProt O76095)	0.634	0.0713	0.688
PCNA (UniProt P12004)	0.353	-0.0687	1.56
TMEM245 (UniProt Q9H330)	1.28	0.28	1.86
COPS7B (UniProt Q9H9Q2)	-0.144	-0.241	-0.241
METTL3 (UniProt Q86U44)	-0.16	0.0119	0.165
DNMBP (UniProt Q6XZF7)	-0.142	-0.138	0.897
IMPDH2 (UniProt P12268)	-0.759	-0.205	1.25
BAG4 (UniProt O95429)	0.25	0.752	0.76
FXR1 (UniProt P51114)	0.487	0.714	0.794
MPHOSPH6 (UniProt Q99547)	0.29	-0.917	-2.13
OCIAD1 (UniProt Q9NX40)	0.0741	-0.143	-0.448
IK (UniProt Q13123)	1.25	0.908	1.75
TBC1D13 (UniProt Q9NVG8)	0.33	0.109	-0.494
SMYD2 (UniProt Q9NRG4)	0.863	0.716	1.28

Target	thermal stability z-score (lipoamide; [1])	thermal stability z-score (lipoamide; arsenate co-treatment: none)	thermal stability z-score (potassium arsenate)
HSPA1B|HSPA1A	-0.148	0.0496	-0.064
PIK3C3 (UniProt Q8NEB9)	-0.102	-0.206	-0.484
UBE3B (UniProt Q7Z3V4)	-0.0453	-0.155	-0.212
ARL8B (UniProt Q9NVJ2)	-0.122	-0.507	-0.267
SFXN4 (UniProt Q6P4A7)	-1.11	-0.872	0.207
SPR (UniProt P35270)	1.28	0.634	1.36
NR4A1 (UniProt P22736)	0.000871	0.0723	0.179
NGRN (UniProt Q9NPE2)	0.637	0.0666	-0.378
LCMT1 (UniProt Q9UIC8)	0.437	0.614	-0.0988
PRCC (UniProt Q92733)	0.409	-0.0293	0.465
NRF1 (UniProt Q16656)	-0.282	-0.0693	0.311
CHD8 (UniProt Q9HCK8)	-0.13	-0.00227	0.147
SAFB (UniProt Q15424)	2.61	0.651	0.0324
SLC26A6 (UniProt Q9BXS9)	0.538	1.4	0.375
OMA1 (UniProt Q96E52)	-0.791	-1.46	-0.431
